From PubChem BioAssay (NCI)
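Dose response: 5 concentrations. Exposure: 48 h. Format: 96-well plates. Endpoint: linear interpolation; highest concentration if not reached. GI50 = concentration required for 50% inhibition of growth. TGI marks complete inhibition of growth.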

Key:
Test in all cases: NCI-60 cell line screen, 48 h
HOP-92 NSCLC = system: HOP-92 NSCLC
SK-OV-3 ovarian = system: SK-OV-3 ovarian
SK-MEL-28 melanoma = system: SK-MEL-28 melanoma
PC-3 prostate = system: PC-3 prostate
UACC-257 melanoma = system: UACC-257 melanoma
HCT-15 colon = system: HCT-15 colon
K-562 leukemia = system: K-562 leukemia
OVCAR-3 ovarian = system: OVCAR-3 ovarian
CCRF-CEM leukemia = system: CCRF-CEM leukemia
T-47D breast = system: T-47D breast
HS 578T breast = system: HS 578T breast
EKVX NSCLC = system: EKVX NSCLC
A498 renal = system: A498 renal
786-0 renal = system: 786-0 renal
ACHN renal = system: ACHN renal
HL-60(TB) leukemia = system: HL-60(TB) leukemia
OVCAR-8 ovarian = system: OVCAR-8 ovarian
OVCAR-4 ovarian = system: OVCAR-4 ovarian
MOLT-4 leukemia = system: MOLT-4 leukemia
CAKI-1 renal = system: CAKI-1 renal
SK-MEL-2 melanoma = system: SK-MEL-2 melanoma
COLO 205 colon = system: COLO 205 colon
SF-539 CNS = system: SF-539 CNS
SR leukemia = system: SR leukemia
MALME-3M melanoma = system: MALME-3M melanoma
SW-620 colon = system: SW-620 colon
U251 CNS = system: U251 CNS
NCI/ADR-RES ovarian = system: NCI/ADR-RES ovarian
MDA-MB-231 breast = system: MDA-MB-231 breast

## Cc1cccc2sc(/N=C(\N)C(Br)Br)nc12
HOP-92 NSCLC
  TGI: 6.39 µM
SK-OV-3 ovarian
  GI50: 4 µM
  TGI: 16 µM
SK-MEL-28 melanoma
  GI50: 1.91 µM
  TGI: 5.26 µM
PC-3 prostate
  GI50: 1.93 µM
  TGI: 6.8 µM
UACC-257 melanoma
  GI50: 2.9 µM
  TGI: 11.5 µM
HCT-15 colon
  GI50: 1.25 µM
  TGI: 6.81 µM
K-562 leukemia
  GI50: 1.07 µM
  TGI: 12.8 µM
OVCAR-3 ovarian
  GI50: 1.68 µM
  TGI: 4.38 µM
CCRF-CEM leukemia
  GI50: 2.67 µM
  TGI: 8.12 µM
T-47D breast
  GI50: 2.54 µM
  TGI: 12.8 µM
HS 578T breast
  GI50: 2.32 µM
  TGI: 9.79 µM
EKVX NSCLC
  GI50: 3.61 µM
  TGI: 14.2 µM
A498 renal
  GI50: 12.5 µM
  TGI: 25.1 µM
786-0 renal
  GI50: 1.81 µM
  TGI: 4.14 µM
ACHN renal
  GI50: 1.07 µM
  TGI: 3.86 µM
HL-60(TB) leukemia
  GI50: 1.83 µM
  TGI: 7.13 µM
OVCAR-8 ovarian
  GI50: 2.11 µM
  TGI: 7.27 µM
OVCAR-4 ovarian
  GI50: 2 µM
  TGI: 6.5 µM
MOLT-4 leukemia
  GI50: 1.72 µM
  TGI: 11.5 µM
CAKI-1 renal
  GI50: 0.82 µM
  TGI: 2.1 µM
SK-MEL-2 melanoma
  GI50: 2.45 µM
  TGI: 7.5 µM
COLO 205 colon
  GI50: 1.25 µM
  TGI: 2.93 µM
SF-539 CNS
  GI50: 1.42 µM
  TGI: 3.34 µM
SR leukemia
  GI50: 2.01 µM
  TGI: 7.45 µM
MALME-3M melanoma
  GI50: 1.64 µM
  TGI: 3.66 µM
SW-620 colon
  GI50: 0.659 µM
  TGI: 2.41 µM
U251 CNS
  GI50: 1.31 µM
  TGI: 3.3 µM
NCI/ADR-RES ovarian
  GI50: 1.67 µM
  TGI: 7.1 µM
MDA-MB-231 breast
  GI50: 2.11 µM
  TGI: 7.82 µM
